Assay results reported in PubChem BioAssay AID1963874 (Molecular Pharmacology Branch, DTP, NCI, 2024).

System: 253994-281-T-J1-PDC KRAS-mutant spheroids with HUVEC/MSC, viability
Experiment: Anticancer human tumor 253994-281-T-J1-PDC patient-derived colorectal carcinoma cell line growth inhibition [KRAS2]
Settings: for IC50: curve of first compound; for viability, T/C: stronger effect = lower value
Method in brief: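 Combination screen of spheroid viability in tumor-cell co-cultures with endothelial (HUVEC) and mesenchymal stem cell stroma. Each agent was tested in half-log dilutions, topping at clinical Cmax or at 10 microM without a known Cmax.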

[1] = second compound 0.0316 µM, first compound 0.0316 µM
[2] = second compound 0.0316 µM, first compound 0.1 µM
[3] = second compound 0.1 µM, first compound 0.0316 µM
[4] = second compound 0.1 µM, first compound 0.1 µM
[5] = second compound 0.316 µM, first compound 0.0316 µM
[6] = second compound 0.316 µM, first compound 0.1 µM
[7] = second compound 1 µM, first compound 0.0316 µM
[8] = second compound 1 µM, first compound 0.1 µM
[9] = second compound 3.16 µM, first compound 0.0316 µM
[10] = second compound 3.16 µM, first compound 0.1 µM
[11] = second compound 0.0316 µM, first compound 0.316 µM
[12] = second compound 0.0316 µM, first compound 1 µM
[13] = second compound 0.0316 µM, first compound 3.16 µM
[14] = second compound 0.0316 µM, first compound 10 µM
[15] = second compound 0.1 µM, first compound 0.316 µM
[16] = second compound 0.1 µM, first compound 1 µM
[17] = second compound 0.1 µM, first compound 3.16 µM
[18] = second compound 0.1 µM, first compound 10 µM
[19] = second compound 0.316 µM, first compound 0.316 µM
[20] = second compound 0.316 µM, first compound 1 µM
[21] = second compound 0.316 µM, first compound 3.16 µM
[22] = second compound 0.316 µM, first compound 10 µM
[23] = second compound 1 µM, first compound 0.316 µM
[24] = second compound 1 µM, first compound 1 µM
[25] = second compound 1 µM, first compound 3.16 µM
[26] = second compound 1 µM, first compound 10 µM
[27] = second compound 3.16 µM, first compound 0.316 µM
[28] = second compound 3.16 µM, first compound 1 µM
[29] = second compound 3.16 µM, first compound 3.16 µM
[30] = second compound 3.16 µM, first compound 10 µM
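Also: spheroids exposed to agents for seven days before readout.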
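For viability, T/C in this document: percent of DMSO vehicle control viability.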

| Compound | IC50 (second compound 0.0316 µM) [µM] | IC50 (second compound 0.1 µM) [µM] | IC50 (second compound 0.316 µM) [µM] | IC50 (second compound 1 µM) [µM] | IC50 (second compound 3.16 µM) [µM] | viability, T/C [1] [%] | viability, T/C [2] [%] | viability, T/C [3] [%] | viability, T/C [4] [%] | viability, T/C [5] [%] | viability, T/C [6] [%] | viability, T/C [7] [%] | viability, T/C [8] [%] | viability, T/C [9] [%] | viability, T/C [10] [%] | viability, T/C [11] [%] | viability, T/C [12] [%] | viability, T/C [13] [%] | viability, T/C [14] [%] | viability, T/C [15] [%] | further results |
| --- | --- | --- | --- | --- | --- | --- | --- | --- | --- | --- | --- | --- | --- | --- | --- | --- | --- | --- | --- | --- | --- |
| CC(C)n1nc(-c2ccc3oc(N)nc3c2)c2c(N)ncnc21 + C=CC(=O)N1CCN(c2nc(OCC3CCCN3C)nc3c2CCN(c2cccc4cccc(C)c24)C3)CC1CC#N | > 0.1 | > 0.1 | > 0.1 | > 0.1 | 0.000686 | 84 | 54.7 | 85.8 | 58.4 | 68.7 | 55 | 68.5 | 54 | 62.4 | 31.6 | – | – | – | – | – | viability, T/C (second compound 0.0316 µM, first compound 0.000316 µM): 97.5%; viability, T/C (second compound 0.0316 µM, first compound 0.001 µM): 90.1%; viability, T/C (second compound 0.0316 µM, first compound 0.00316 µM): 80.2%; viability, T/C (second compound 0.0316 µM, first compound 0.01 µM): 82.7%; viability, T/C (second compound 0.1 µM, first compound 0.000316 µM): 95.6%; viability, T/C (second compound 0.1 µM, first compound 0.001 µM): 88.8%; viability, T/C (second compound 0.1 µM, first compound 0.00316 µM): 89.1%; viability, T/C (second compound 0.1 µM, first compound 0.01 µM): 86.8%; viability, T/C (second compound 0.316 µM, first compound 0.000316 µM): 95.4%; viability, T/C (second compound 0.316 µM, first compound 0.001 µM): 96.7%; viability, T/C (second compound 0.316 µM, first compound 0.00316 µM): 85.2%; viability, T/C (second compound 0.316 µM, first compound 0.01 µM): 81.6%; viability, T/C (second compound 1 µM, first compound 0.000316 µM): 106%; viability, T/C (second compound 1 µM, first compound 0.001 µM): 89.9%; viability, T/C (second compound 1 µM, first compound 0.00316 µM): 79.1%; viability, T/C (second compound 1 µM, first compound 0.01 µM): 77.4%; viability, T/C (second compound 3.16 µM, first compound 0.000316 µM): 73.4%; viability, T/C (second compound 3.16 µM, first compound 0.001 µM): 25.1%; viability, T/C (second compound 3.16 µM, first compound 0.00316 µM): 56.7%; viability, T/C (second compound 3.16 µM, first compound 0.01 µM): 17% |
| CC1(C)CCC(CN2CCN(c3ccc(C(=O)NS(=O)(=O)c4ccc(NCC5CCOCC5)c([N+](=O)[O-])c4)c(Oc4cnc5[nH]ccc5c4)c3)CC2)=C(c2ccc(Cl)cc2)C1 + C=CC(=O)N1CCN(c2nc(OCC3CCCN3C)nc3c2CCN(c2cccc4cccc(C)c24)C3)CC1CC#N | > 10 | 6.52 | 8.92 | 4.9 | < 0.0316 | 110 | 98.6 | 96.9 | 89 | 102 | 99.2 | 83.6 | 94.5 | 18.6 | 25.2 | 102 | 90.6 | 84.5 | 56.7 | 87.4 | viability, T/C [16]: 90.2%; viability, T/C [17]: 64.8%; viability, T/C [18]: 41.2%; viability, T/C [19]: 95.6%; viability, T/C [20]: 92.8%; viability, T/C [21]: 87.1%; viability, T/C [22]: 45.7%; viability, T/C [23]: 91.7%; viability, T/C [24]: 79.3%; viability, T/C [25]: 64.3%; viability, T/C [26]: 27.8%; viability, T/C [27]: 22%; viability, T/C [28]: 9.94%; viability, T/C [29]: 0.66%; viability, T/C [30]: 0.3% |
| COc1cc(Nc2ncc3c(n2)-c2ccc(Cl)cc2C(c2c(F)cccc2OC)=NC3)ccc1C(=O)O + C=CC(=O)N1CCN(c2nc(OCC3CCCN3C)nc3c2CCN(c2cccc4cccc(C)c24)C3)CC1CC#N | 0.0898 | > 10 | < 0.0316 | > 10 | < 0.0316 | 74.5 | 42.8 | 76.6 | 36.6 | 60.9 | 35.9 | 70.1 | 39.5 | 17.1 | 8.06 | 39 | 48.5 | 50 | 57 | 38.9 | viability, T/C [16]: 40.7%; viability, T/C [17]: 54.2%; viability, T/C [18]: 64.4%; viability, T/C [19]: 32.6%; viability, T/C [20]: 45.9%; viability, T/C [21]: 50.4%; viability, T/C [22]: 55.1%; viability, T/C [23]: 36%; viability, T/C [24]: 40.3%; viability, T/C [25]: 60.6%; viability, T/C [26]: 58.4%; viability, T/C [27]: 5.83%; viability, T/C [28]: 20.6%; viability, T/C [29]: 25.9%; viability, T/C [30]: 25.9% |
| COc1cc2nccc(Oc3ccc(NC(=O)C4(C(=O)Nc5ccc(F)cc5)CC4)cc3)c2cc1OC + C=CC(=O)N1CCN(c2nc(OCC3CCCN3C)nc3c2CCN(c2cccc4cccc(C)c24)C3)CC1CC#N | > 10 | > 10 | > 10 | 7.14 | 0.166 | 88.8 | 104 | 101 | 101 | 97.8 | 99.5 | 97.1 | 96.5 | 62.7 | 65.5 | 81.8 | 91.1 | 92.2 | 69.8 | 80.4 | viability, T/C [16]: 79.5%; viability, T/C [17]: 87.6%; viability, T/C [18]: 71.1%; viability, T/C [19]: 89.6%; viability, T/C [20]: 97.6%; viability, T/C [21]: 87.5%; viability, T/C [22]: 50.3%; viability, T/C [23]: 84.8%; viability, T/C [24]: 92.2%; viability, T/C [25]: 88.9%; viability, T/C [26]: 33.9%; viability, T/C [27]: 34.6%; viability, T/C [28]: 20.4%; viability, T/C [29]: 18.9%; viability, T/C [30]: 0.21% |
